# Measured values from article PMC6271731, “Multitarget Molecular Hybrids of Cinnamic Acids” (Molecules, 2014).
# Where two headings read alike, the source gives them in different places. Marks after values point to notes of the source that are not given here.
# Tests used:
# [1] = Inhibition of linoleic acid lipid peroxidation (AAPH); conditions: % inhibition at 100 μM; pH 7.4, 37 °C
# Experimental: Production of conjugated diene hydroperoxide by oxidation of sodium linoleate in an aqueous dispersion is monitored at 234 nm. AAPH is used as a free radical initiator [12, 24]. Ten microlitres of the 16 mM sodium linoleate solution was added to the UV cuvette containing 930 μL of 0.05 M phosphate buffer, pH 7.4 prethermostated at 37 °C. The oxidation reaction was initiated at 37 °C under air by the addition of 40 mM AAPH solution (50 μL). Ten μL of the tested compounds were added in the mixture. Lipid oxidation was measured in the presence of the same level of DMSO. The rate of oxidation at 37 °C was monitored by recording the increase in absorption at 234 nm caused by conjugated diene hydroperoxides. The results were compared to the appropriate standard inhibitor trolox (63%) (Table 1).
# [2] = tested on: sciatic nerve crush; assay: Sciatic Functional Index after sciatic nerve crush; format: in vivo, Wistar rats
# Excerpt: SFI is the current standard for measuring functional recovery following rat sciatic nerve crush. Its calculation involves the measurement of wide-ranging relationships between feet and toes of the hindlimb of recovering animals. SFI values close to −100 indicate severe damage, while SFI values close to 0 indicate normal function. The treated rats improved their walk and the relationship between feet and toes of the crushed hindlimbs starting from day 14 to day 21.
# One day prior to the surgery and the behavioral testing, Wistar rats were handled by the investigators and introduced to the testing environment for a brief period of time. Rats were anesthetized with chloral hydrate 4.5% (1 mL/100 g). […] After the exposure, the nerve was crushed once for 30 s at standardized force. The muscle was reapproximated and the skin incision was closed using 6 to 0 sutures. The examination of the loss of sensory and motor function in the operated limb established the crush completeness. Digits in the operated limb were pinched with a blunt forceps. Absence of foot withdrawal and vocalization was recorded as loss of sensory and motor function. Animals were placed under a heating lamp until they recovered from the anesthesia and they returned to their home cages.
# The tested solutions were freshly prepared on surgery day (day 0).
# […] The day of the surgery is considered as day 0 [36, 37, 38].
# In the present study, the plantar surfaces of the hindlimbs of the rats were impregnated with ink and then the animals were allowed to walk on a paper along a corridor, leaving footprints during walking.
# A wooden corridor (1 m × 8 cm) with raised sidewalls was used. Two and a half white paper strips (40 × 7.5 cm) were placed along the corridor and were fixed with adhesive tape closely together and at the base and the sidewalls of the corridor. Each rat was trained to walk steadily along the corridor without stops until it made three at least successful efforts of continuous walking. The footprints were allowed to dry and were then converted into digital images using a computer and a high resolution scanner. The image processing was done by using the ImageJ. This is an open-source image analysis software created in 1997 by Rayne Rasband (National Institute of Health), widely used in medical applications, especially neuroscience, for measuring distances and surface and plotting the data. The footprints were analyzed as described by Bain et al. in measurements were included: • (i) print length (PL): distance from the heel to the third toe, • (ii) toe spread (TS) distance from the first to the fifth toe on both sides and • (iii) intermediate toe spread (ITS) the distance between the middle of the second and fourth toe
# All measurements were taken both from the experimental (EPL, ETS, EIT) and the normal (NPL, NTS, NIT) side. The formula used to calculate SFI was the following: SFI = −38.3 (EPL − NPL)/NPL + 109.5 (ETS − NTS)/NTS + 13.3 (EIT − NIT)/NIT − 8.8
# [3] = tested on: acetic acid-induced writhing; assay: Antinociceptive screen (writhing test); format: in vivo, Wistar rats; conditions: Rattus norvegicus, ip, 0.5 h, i.p. 30 min before 0.6% acetic acid, writhes counted over 30 min, read-out: % ANA (in vivo analgesic-antinociceptive activity)
# Experimental: (§1) Anti-inflammatory tests were conducted on Fisher-344 inbred rats of ca. 200 g body weight whereas antinociception and motor and sensory functions after sciatic nerve crash were performed on Wistar rats. Both sexes were used. Females pregnant were excluded. Each group was composed of 6 animals. The animals, which have been bred in our laboratory, were housed under standard conditions and received a diet of commercial food pellets and water ad libitum during the maintenance. Our studies were carried out in accordance with recognised guidelines on animal experimentation.
# […] Controls received the liquid vehicle only. All the in vivo experiments were repeated at least in triplicate and were subjected to statistic analysis using the student’s t-test.
# The writhing reflex was used. The test compounds were administered i.p. 30 min prior to the i.p. administration of 1 mL/100 g body weight of 0.6% acetic acid. […] After 5 min, the number of stretches characterized by repeated contractions of the abdominal musculature accompanied by extension of the hind limbs was counted every 5 min for the next 30 min. […] The % antinociceptive activity (a:a) was calculated as: % a:a = (n − n'/n) × 100 (a: a analgesic activity, n average number of writhes of control group, n' average number in the test group).
# [4] = tested on: carrageenin-induced rat paw oedema; assay: Inhibition of the carrageenin-induced rat paw oedema; format: in vivo, Fisher-344 rats; conditions: 0.01 mmol/1 kg, i.p., 3.5 h after carrageenin
# Experimental: as §1
# The tested compounds 0.01 mmol/kg body weight were suspended in water with few drops of Tween 80 and ground in a mortar before use. Controls received the liquid vehicle only. All the in vivo experiments were repeated at least in triplicate and were subjected to statistic analysis using the student’s t-test.
# Oedema was induced in the right hind paw of Fisher 344 rats by the intradermal injection of 0.1 mL 2% carrageenin in water. Each group was composed of 6 animals which they were entirely fasted during the experiment period. The tested compounds 0.01 mmol/kg body weight, were given intraperitoneally simultaneously with the carrageenin injection. The rats were euthanized 3.5 h after carrageenin injection. The difference between the weight of the injected and not-injected paws was calculated for each animal. The change in paw weight was compared with that in control animals (treated with water) and expressed as a percent inhibition of the oedema (ICPE % values in Table 1). Indomethacin 0.01 mmol/kg was used as reference compound. ICPE % are the mean values from two different experiments with a standard error of the mean less than 10%.
# [5] = molecular target: T1, soybean lipoxygenase (Glycine max, UniProt P08170); assay: Soybean lipoxygenase inhibition in vitro; format: biochemical
# T1 construct: purchased Sigma Chemical, Co. (St. Louis, MO, USA)
# T1 sequence (P08170 1-839): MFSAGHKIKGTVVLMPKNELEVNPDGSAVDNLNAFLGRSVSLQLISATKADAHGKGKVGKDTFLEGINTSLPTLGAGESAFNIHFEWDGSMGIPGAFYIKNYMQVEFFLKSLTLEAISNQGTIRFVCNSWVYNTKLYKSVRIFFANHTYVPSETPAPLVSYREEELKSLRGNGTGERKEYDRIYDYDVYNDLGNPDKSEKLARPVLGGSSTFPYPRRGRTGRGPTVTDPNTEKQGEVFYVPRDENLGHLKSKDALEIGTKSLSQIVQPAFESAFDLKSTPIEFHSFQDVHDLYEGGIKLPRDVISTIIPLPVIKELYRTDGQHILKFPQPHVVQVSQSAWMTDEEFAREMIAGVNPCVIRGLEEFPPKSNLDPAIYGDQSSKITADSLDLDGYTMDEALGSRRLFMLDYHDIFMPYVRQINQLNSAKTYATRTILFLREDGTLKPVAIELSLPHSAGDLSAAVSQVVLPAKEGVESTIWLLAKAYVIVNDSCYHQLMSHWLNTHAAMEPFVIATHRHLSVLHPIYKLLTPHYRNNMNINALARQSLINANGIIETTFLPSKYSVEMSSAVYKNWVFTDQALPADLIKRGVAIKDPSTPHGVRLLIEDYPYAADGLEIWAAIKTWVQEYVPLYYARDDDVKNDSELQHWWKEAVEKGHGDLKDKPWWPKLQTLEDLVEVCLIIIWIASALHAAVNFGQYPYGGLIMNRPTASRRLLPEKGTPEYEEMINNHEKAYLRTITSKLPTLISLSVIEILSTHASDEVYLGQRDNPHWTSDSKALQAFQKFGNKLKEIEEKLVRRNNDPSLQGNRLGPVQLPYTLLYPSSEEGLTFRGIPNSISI
# Experimental: DMSO solution of the tested compound was incubated with sodium linoleate (0.1 mM) and 0.2 mL of soybean lipoxygenase solution (1/9 × 10^−4 w/v in saline) in buffer pH 9 (tris) and at room temperature. […] The results are given in Table 1 expressed as IC50 values or % inhibition at 100 μM.
# [6] = Lipophilicity as RM values by RP-TLC; format: physicochemical; conditions: methanol/water 70/30, 24 °C, average of at least five measurements
# Excerpt: Since lipophilicity is a significant physicochemical property determining distribution, bioavailability, metabolic activity and elimination, we tried to determine experimentally the lipophilicity of the new substances by a RPTLC method as RM values (Table 1) and to compare them with the corresponding theoretically calculated clog p values in n-octanol-buffer. This is considered to be a reliable, fast and convenient method for expressing lipophilicity. Lipophilicity (Table 2), was theoretically calculated as Clog p values in n-octanol-buffer by the CLOGP Programme of Biobyte Corp..
# Reversed phase TLC (RP-TLC) was performed on silica gel plates impregnated with 5% (v/v) liquid paraffin in light petroleum ether. The mobile phase was a methanol/water mixture (70/30, v/v). The plates were developed in closed chromatography tanks saturated with the mobile phase at 24 °C. Spots were detected under UV light. RM values were determined from the corresponding Rf values (from five individual measurements) using the equation RM = log [(1/Rf) − 1] (Table 1).
# [7] = tested on: esterase; assay: In vitro esterase activity on hybrids; format: in vitro ADME; conditions: 1 mM, phosphate buffer pH 7.8, 37 °C, 90 min and 24 h
# Experimental: Representative hybrid molecules are subjected to an esterase activity in vitro. 100 μL of 1 mg/mL 0.001 N hydrochloric acid of esterase solution was added to 1,250 μL of phosphate buffer (0.1 M) pH 7.8 including the tested compounds (150 μL in DMSO, final concentration 1 mM) and incubated at 37 °C for 90 min. The incubated solution was allowed to set at room temperature. Then, the absorption was measured at 256 nm. The measurement was repeated after 24 h of incubation at 37 °C.
# [8] = molecular target: T2, pancreatic bovine trypsin (Bos taurus, UniProt P00760); assay: Inhibition of trypsin induced proteolysis in vitro; format: biochemical; conditions: bovine albumin substrate, pH 7.6, 37 °C; read-out: IC50 μM Trypsin Inh.
# T2 construct: purchased Sigma Chemical, Co. (St. Louis, MO, USA)
# T2 sequence (P00760 24-246): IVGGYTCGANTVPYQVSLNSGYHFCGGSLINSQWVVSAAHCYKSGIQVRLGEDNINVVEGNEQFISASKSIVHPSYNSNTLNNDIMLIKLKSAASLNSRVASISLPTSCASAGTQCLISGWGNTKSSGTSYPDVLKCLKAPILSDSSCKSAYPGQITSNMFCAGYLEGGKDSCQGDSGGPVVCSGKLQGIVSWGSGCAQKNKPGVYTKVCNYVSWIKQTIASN
# Excerpt: All chemicals, solvents, chemical and biochemical reagents were of analytical grade and purchased from commercial sources (Merck, Merck KGaA, Darmstadt, Germany, Fluka Sigma-Aldrich Laborchemikalien GmbH, Hannover, Germany, Alfa Aesar, Karlsruhe, Germany and Sigma, St. Louis, MO, USA). Soybean lipoxygenase, pancreatic bovine trypsin, sodium linoleate, free radical DPPH and 2,2-azinobis-2-methyl-propanimidamine HCl (AAPH) were obtained from Sigma Chemical, Co. (St. Louis, MO, USA), carrageenin, type K, was commercially available. All starting materials were obtained from commercial sources and used without further purification.
# The test was carried out according to a modified Kunitz method. Bovine albumin was used as substrate for trypsin. The reaction mixture consisted of 0.075 mg/mL trypsin (200 μL) and 780 μL of phosphate buffer pH 7.6 (including the tested compounds (20 μL in DMSO, final concentration 100 μM) preincubated at 37 °C for 20 min and then 1 mL of albumin (stock solution 6 g/100 mL in phosphate buffer 0.1 M, pH 7.6) was added and incubated at 37 °C for 30 min. After the incubation 1 mL of 5% trichloroacetic acid was added to the incubated solution to stop the enzyme’s reaction and allowed to set at room temperature for 1 h. Then the solution was filtered by filter paper and the absorption of the filtered solution was measured at 280 nm. Salicylic acid was used as a reference compound (Table 1).
# [9] = single i.p. dose 0.01 mmol/mL/kg, 8 h after surgery
# [10] = sodium linoleate 0.1 mM, tris buffer pH 9, room temperature, read-out: IC50 μM LOX Inh.
SMILES,AAPH % (% inhibition of lipid peroxidation) [1] [%],inhibition in vivo at 0.01 mmol/0.1 kg [3] [%],% ICPE (carrageenin-induced rat paw oedema inhibition) [4],"IC50 [5, 10] [µM]",RM (±S.D.) [6],IC50 [5] [µM],also measured
"CC(=O)Nc1ccc(O)cc1 [Paracetamol, 4-acetamidophenol, reference compound]",91,66,21 * %,82,,,"SFI, Day before Crash ([2]; baseline before surgery and dosing): −12; SFI, Day-1 [2, 9]: −93.3; SFI, Day-7 [2, 9]: −93.3; SFI, Day-14 [2, 9]: −36; SFI, Day-21 [2, 9]: −18.5; % ICPE (carrageenin-induced rat paw oedema inhibition) ([4]; listed as paracetamol): 21%"
"O=C(/C=C/c1cccc(Oc2ccccc2)c1)Oc1cc(=O)oc2ccccc12 [Compound 2b, (E)-2-Oxo-2H-chromen-4-yl 3-(3-phenoxyphenyl)acrylate]",100,,,,−0.661± 0.008,100,hydrolysis of the ester group by esterase [7]: hydrolyzed; IC50 [8]: 100 µM
"O=c1cc(O)c2ccccc2o1 [Compound 4-HC, 4-hydroxycoumarin, reference compound]",100,,62 * %,,,,
O=C(O)/C=C/c1cccs1 [IV],60,,42.7 * %,98,−0.56 ± 0.019,,
"COc1ccc2c(c1)c(CC(=O)O)c(C)n2C(=O)c1ccc(Cl)cc1 [Indomethacin, reference compound]",,,47 * %,,,,% ICPE (carrageenin-induced rat paw oedema inhibition) ([4]; listed as indomethacin): 47%
O=C(O)/C=C/c1ccc(OCc2ccc(Br)cc2)cc1 [II],84,67,41.6 * %,,−0.41 ± 0.026,66,% ICPE (carrageenin-induced rat paw oedema inhibition) ([4]; listed as acid II): 44%
